Data taken from US6660804B1, “Cyclodextrin polymers and/or cyclodextrin derivatives with complexing properties and ion-exchange properties and method for the production thereof” (Universite des Sciences et Technologies de Lille, priority 1999, dated 2003).

Legend:
[1] = Diffusion of CI Basic Red 22 through 12000-14000 d dialysis membrane (complexing); assay type: physicochemical; conditions: 50 ml 10^-4 M dye plus 0.2837 g additive inside membrane, 250 ml distilled water outside, after 5 hours of dialysis; dye alone 0.2722
Protocol: Three solutions of 50 ml of 10^−4 M CI Basic Red 22 basic dye were introduced into 12000-14000 d dialysis membranes. The first fraction contained the dye alone; the second contained the dye and 0.2837 g of β cyclodextrin (i.e., 5×10^−3 mol/l); the third contained the dye and 0.2837 g of soluble cyclodextrin copolymer obtained using the method described in Example 1. The three membranes with the three different dye solutions were each immersed in 250 ml of distilled water. Diffusion of the dye from the interior of the membrane into the distilled water surrounding the membrane was monitored by determining the absorbance of the external solution at 540 nanometers (nm). The absorbance values obtained for the external solutions for the three fractions after 5 hours of dialysis were 0.2722 for the first fraction, 0.1873 for the second fraction and only 0.0237 for the third fraction.

[2] = Diffusion of 2-naphthol through 12000-14000 d dialysis membrane (complexing); assay type: physicochemical; conditions: 50 ml 10^-3 M 2-naphthol plus 0.2837 g β cyclodextrin or 0.3317 g copolymer inside membrane, 250 ml distilled water outside, after 76 hours of dialysis; 2-naphthol alone 0.2865
Protocol: Three solutions of 50 ml of 10−3 M 2-naphthol were introduced into 12000-14000 d dialysis membranes. The first fraction contained 2-naphthol alone; the second contained the dye and 0.2837 g of β cyclodextrin (i.e., 5×10^−3 mol/l); the third contained the dye and 0.3317 g of the soluble cyclodextrin copolymer obtained using the method described in Example 1. The three membranes with the three different dye solutions were each immersed in 250 ml of distilled water. Diffusion of the dye from the interior of the membrane into the distilled water surrounding the membrane was monitored by determining the absorbance of the external solution at 327 nm. The absorbance values obtained for the external solutions for the three fractions after 76 hours of dialysis were 0.2865 for the first fraction, 0.3030 for the second fraction and only 0.2574 for the third fraction.

OC[C@H]1O[C@@H]2O[C@H]3[C@H](O)[C@@H](O)[C@@H](O[C@H]4[C@H](O)[C@@H](O)[C@@H](O[C@H]5[C@H](O)[C@@H](O)[C@@H](O[C@H]6[C@H](O)[C@@H](O)[C@@H](O[C@H]7[C@H](O)[C@@H](O)[C@@H](O[C@H]8[C@H](O)[C@@H](O)[C@@H](O[C@H]1[C@H](O)[C@H]2O)O[C@@H]8CO)O[C@@H]7CO)O[C@@H]6CO)O[C@@H]5CO)O[C@@H]4CO)O[C@@H]3CO [β cyclodextrin]
absorbance of the external solution at 540 nm [1]: 0.1873
absorbance of the external solution at 327 nm [2]: 0.3030
